The values that follow come from ChEMBL document CHEMBL1150938, “Recent natural products based drug development: a pharmaceutical industry perspective” (J Nat Prod, 1998).

For experiment [1], the system named is Homo sapiens. Nature of the experiment: Reduction in serum LDL-cholesterol level in normolipidemic human at 300 mg administered twice daily for 2 weeks. The experiment is classed as functional. Further details: scale not given: the % may be the effect or the level left.
The test system of experiment [2] is Homo sapiens. Nature of the experiment: Inhibition of fractional cholesterol absorption in normolipidemic human at 300 mg administered twice daily for 2 weeks. Further details: scale not given: the % may be the effect or the level left. It counts as functional.

Molecules are shown by their SMILES.

On to `C[C@@H]1CC[C@@]2(OC1)O[C@H]1C[C@H]3[C@@H]4CC[C@H]5C[C@@H](O[C@@H]6O[C@H](CO)[C@@H](O[C@@H]7O[C@H](CO)[C@@H](O)[C@H](O)[C@H]7O)[C@H](O)[C@H]6O)CC[C@]5(C)[C@H]4C(=O)C[C@]3(C)[C@H]1[C@@H]2C` [PAMAQUESIDE], for which the Activity was 10% in experiment [1] and 35% in experiment [2].
